Source: PMC7722249 (Journal of medicinal chemistry, 2019)
Read-outs that look alike come from different tables or passages of the source.

Columns and labels:
[1] = tested on: HepG2 cells; settings: HepG2, 14 day; for mitochondrial toxicity: at 10 μM
[2] = HepG2 cytotoxicity, 3 day, glucose/galactose media; format: cell-based; settings: human
[3] = tested on: CFU-GM lineage; test: Bone marrow toxicity, CFU-GM; format: cell-based, human; settings: human, Cytotoxicity IC50, bone marrow CFU-GM, three separate donors
[4] = tested on: BFU-E lineage; test: Bone marrow toxicity, BFU-E; format: cell-based, human; settings: human, Cytotoxicity IC50, bone marrow BFU-E, three separate donors
[5] = tested on: colony-forming unit-granulocyte, macrophage (CFU-GM) lineage; test: Bone marrow toxicity, CFU-GM; format: cell-based, human; settings: positive control, at the concentration tested
[6] = tested on: burst forming unit-erythroid (BFU-E) lineage; test: Bone marrow toxicity, BFU-E; format: cell-based, human; settings: positive control, at the concentration tested
[7] = in vitro; settings: African green monkey
[8] = tested on: Salmonella typhimurium (TA98, TA100, TA1535, and TA1537) and Escherichia coli WP2 uvrA (pKM101); test: Mini Ames reverse mutation study; settings: with and without S9 mix
[9] = tested on: HCV GT1b-WT replicon; test: GT1b stably transfected replicon in Huh-7 cells; format: cell-based; settings: Hepatitis C virus; for EC50: Huh-7, read-out: EC50 GT1b-WT; for EC90: Huh-7, read-out: EC90 GT1b-WT
[10] = tested on: HCV GT1b/5a chimeric replicon; test: Chimeric replicon GT1b/5a in Huh-7 cells; format: cell-based; settings: Hepatitis C virus, Huh-7, read-out: EC90 GT1b/5a
[11] = Stability in human intestinal microsomes
[12] = in vitro; settings: human, microsomes
[13] = tested on: HCV GT1b/4a chimeric replicon; test: Chimeric replicon GT1b/4a in Huh-7 cells; format: cell-based; settings: Hepatitis C virus, Huh-7, read-out: EC90 GT1b/4a
[14] = tested on: HCV GT2a; test: GT2a infectious assay in Huh-7 cells; format: cell-based; settings: Hepatitis C virus, Huh-7, read-out: EC90 GT2a
[15] = Cardiac toxicity in stem cell-induced ventricular cardiomyocytes; settings: human
[16] = tested on: HCV GT1b/3a chimeric replicon; test: Chimeric replicon GT1b/3a in Huh-7 cells; format: cell-based; settings: Hepatitis C virus, Huh-7, read-out: EC90 GT1b/3a
[17] = Stability in simulated gastric fluid; format: physicochemical; settings: 37 °C
[18] = HepG2 cytotoxicity, 14 day, glucose/galactose media; format: cell-based; settings: human
[19] = for Clint(liver): scaled from Clint(mic)
[20] = target: T1, human ether-à-go-go-related gene (hERG) potassium channels (Homo sapiens, UniProt Q12809); test: hERG whole-cell patch clamp in CHO cells; format: cell-based
[21] = Stability in simulated intestinal fluid; settings: 37 °C
[22] = tested on: Salmonella typhimurium (TA98, TA100, TA1535, and TA1537) and Escherichia coli WP2 uvrA (pKM101); settings: cited from earlier work
[23] = target: T1, human ether-à-go-go-related gene (hERG) potassium channels; settings: cited from earlier work
[24] = In vitro nephrotoxicity in HK-2 cells, 3 day assay; settings: human
[25] = target: T2, DNA polymerase γ (Homo sapiens, UniProt P54098); test: Human DNA polymerase γ inhibition; format: biochemical
T2 sequence (P54098 1-1239): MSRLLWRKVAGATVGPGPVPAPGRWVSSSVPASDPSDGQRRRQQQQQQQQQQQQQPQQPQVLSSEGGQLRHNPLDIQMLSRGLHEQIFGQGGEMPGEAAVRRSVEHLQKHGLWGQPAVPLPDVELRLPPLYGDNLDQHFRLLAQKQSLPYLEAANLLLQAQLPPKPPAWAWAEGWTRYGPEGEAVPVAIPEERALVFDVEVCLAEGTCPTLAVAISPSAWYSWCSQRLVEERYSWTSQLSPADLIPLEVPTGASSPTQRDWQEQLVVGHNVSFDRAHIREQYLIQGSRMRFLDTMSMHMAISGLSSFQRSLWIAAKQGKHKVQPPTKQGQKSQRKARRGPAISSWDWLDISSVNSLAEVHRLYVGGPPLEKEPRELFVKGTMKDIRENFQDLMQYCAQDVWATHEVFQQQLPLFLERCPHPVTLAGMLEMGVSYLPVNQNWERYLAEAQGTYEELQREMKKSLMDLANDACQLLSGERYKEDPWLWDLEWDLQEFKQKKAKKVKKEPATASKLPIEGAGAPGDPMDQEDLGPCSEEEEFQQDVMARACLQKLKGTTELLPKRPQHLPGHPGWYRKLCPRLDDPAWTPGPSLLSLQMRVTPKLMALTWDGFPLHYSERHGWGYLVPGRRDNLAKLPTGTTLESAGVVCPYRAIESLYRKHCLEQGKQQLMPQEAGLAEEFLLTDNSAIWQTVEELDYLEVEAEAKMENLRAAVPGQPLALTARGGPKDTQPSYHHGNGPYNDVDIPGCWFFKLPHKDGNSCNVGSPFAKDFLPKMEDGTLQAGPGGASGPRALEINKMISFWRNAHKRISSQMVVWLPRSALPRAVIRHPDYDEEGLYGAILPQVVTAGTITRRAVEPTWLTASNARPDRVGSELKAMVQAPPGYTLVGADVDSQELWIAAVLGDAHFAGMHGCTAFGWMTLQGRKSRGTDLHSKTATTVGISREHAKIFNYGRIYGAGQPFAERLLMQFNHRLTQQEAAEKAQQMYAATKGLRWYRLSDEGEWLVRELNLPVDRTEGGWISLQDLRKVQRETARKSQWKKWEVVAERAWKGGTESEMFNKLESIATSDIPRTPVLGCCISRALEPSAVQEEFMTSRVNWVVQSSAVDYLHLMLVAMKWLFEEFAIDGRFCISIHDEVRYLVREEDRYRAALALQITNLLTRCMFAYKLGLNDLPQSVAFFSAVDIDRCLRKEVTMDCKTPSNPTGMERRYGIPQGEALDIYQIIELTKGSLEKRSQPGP

[26] = target: DNA polymerase β (Homo sapiens, UniProt P06746); test: Human DNA polymerase β inhibition; format: biochemical

T1 sequence (Q12809 whole entry): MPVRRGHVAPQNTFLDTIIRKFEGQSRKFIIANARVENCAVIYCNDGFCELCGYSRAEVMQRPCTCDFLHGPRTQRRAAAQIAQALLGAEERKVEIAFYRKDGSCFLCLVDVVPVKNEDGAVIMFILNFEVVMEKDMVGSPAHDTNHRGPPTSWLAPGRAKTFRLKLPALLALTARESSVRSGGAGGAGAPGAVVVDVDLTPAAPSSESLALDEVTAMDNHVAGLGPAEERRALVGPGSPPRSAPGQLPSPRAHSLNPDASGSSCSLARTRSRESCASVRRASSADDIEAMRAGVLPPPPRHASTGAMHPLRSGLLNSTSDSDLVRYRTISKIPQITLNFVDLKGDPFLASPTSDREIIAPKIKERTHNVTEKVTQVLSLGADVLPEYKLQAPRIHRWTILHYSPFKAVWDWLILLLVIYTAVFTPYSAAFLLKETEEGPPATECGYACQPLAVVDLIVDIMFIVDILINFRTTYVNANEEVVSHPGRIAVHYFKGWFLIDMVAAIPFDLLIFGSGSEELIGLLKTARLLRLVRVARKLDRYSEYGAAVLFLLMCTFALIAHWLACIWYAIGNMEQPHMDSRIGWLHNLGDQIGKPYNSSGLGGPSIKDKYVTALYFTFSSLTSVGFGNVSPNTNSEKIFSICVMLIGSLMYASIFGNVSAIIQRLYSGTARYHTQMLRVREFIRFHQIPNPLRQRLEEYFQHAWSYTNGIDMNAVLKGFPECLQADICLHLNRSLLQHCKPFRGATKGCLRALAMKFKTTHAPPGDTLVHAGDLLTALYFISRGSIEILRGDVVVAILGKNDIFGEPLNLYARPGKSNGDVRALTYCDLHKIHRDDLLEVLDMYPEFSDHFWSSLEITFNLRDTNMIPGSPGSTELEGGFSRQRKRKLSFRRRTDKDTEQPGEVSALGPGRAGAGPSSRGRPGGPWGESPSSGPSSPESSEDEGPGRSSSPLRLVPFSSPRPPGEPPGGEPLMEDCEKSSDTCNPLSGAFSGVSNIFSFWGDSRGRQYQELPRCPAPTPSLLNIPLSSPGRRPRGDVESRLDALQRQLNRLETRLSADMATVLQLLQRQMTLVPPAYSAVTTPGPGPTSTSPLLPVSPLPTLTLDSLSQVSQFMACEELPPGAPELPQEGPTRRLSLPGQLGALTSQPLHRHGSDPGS

CC(C)OC(=O)[C@H](C)NP(=O)(OC[C@H]1O[C@@H](n2ccc(=O)[nH]c2=O)[C@](F)(Br)[C@H]1O)Oc1ccccc1 (mixture of isomers) [Compound 14]
MtDNA content % of control (range) ([1]; 50 μM): 100 (99–104) % of control
measurable mitochondrial toxicity (none up to) [1]: > 50 µM
IC50 at 3 days [2]: > 100000 nM
IC50 [3]: > 100000 nM
IC50 [4]: > 100000 nM

Cc1cn([C@H]2C[C@H](N=[N+]=[N-])[C@@H](CO)O2)c(=O)[nH]c1=O [AZT, reference compound]
toxicity in myelomonocytic progenitors [5]: high toxicity
toxicity in erythroid progenitors [6]: high toxicity

O=c1ccn([C@@H]2O[C@H](CO)[C@@H](O)[C@]2(F)Br)c(=O)[nH]1 [Compound 12, 1-((2R, 3S, 4R, 5R)-3-Bromo-3-fluoro-4-hydroxy-5-(hydroxymethyl)tetrahydrofuran-2-yl)pyrimidine-2,4(1H,3H)-dione]
MtDNA content % of control (range) ([1]; 50 μM): 72 (63–83) % of control
lactic acid production (% of control) ([1]; 50 μM): 69 ± 14 % of control
measurable mitochondrial toxicity (none up to) [1]: > 50 µM
CC50 [7]: > 100000 nM
IC50 [3]: > 100000 nM

CC(C)OC(=O)[C@H](C)N[P@@](=O)(OC[C@H]1O[C@@H](n2ccc(=O)[nH]c2=O)[C@@](F)(Br)[C@@H]1O)Oc1ccccc1 [Compound 27, Isopropyl ((R)-(((2R,3R,4S,5R)-4-Bromo-5-(2,4-dioxo-3,4-dihydro-pyrimidin-1(2H)-yl)-4-fluoro-3-hydroxytetrahydrofuran-2-yl)-methoxy)(phenoxy)phosphoryl)-L-alaninate]
mutagenicity (mini Ames) [8]: negative for mutagenicity
EC50 [9]: 92 nM
EC90 [10]: 800 ± 1500 nM
MtDNA content % of control (range) ([1]; 50 μM): 65 (65–65) % of control
lactic acid production (% of control) ([1]; 50 μM): 100 ± 6.2 % of control
half-life [11]: 132 min
IC50 at 3 days [2]: > 100000 nM
CC50 [7]: > 100000 nM
half-life [12]: 18.4 min
microsomal CLint [12]: 75.3 µL/min/mg
EC90 [13]: 870 ± 230 nM
EC90 [14]: 830 ± 10 nM
IC50 [15]: > 100000 nM
EC90 [16]: 1600 ± 20 nM
simulated gastric fluid (24 h), loss [17]: ~2% loss
IC50 at 14 days [18]: > 100000 nM
IC50 [3]: > 100000 nM
IC50 [4]: > 100000 nM
Clint(liver) [19]: 67.8 mL/min/kg
IC50 [20]: > 30000 nM
stability in simulated intestinal fluid (24 h) [21]: stable

CC(C)OC(=O)[C@H](C)N[P@](=O)(OC[C@H]1O[C@@H](n2ccc(=O)[nH]c2=O)[C@@](F)(Br)[C@@H]1O)Oc1ccccc1 [Compound 28, Isopropyl ((S)-(((2R,3R,4S,5R)-4-Bromo-5-(2,4-dioxo-3,4-dihydro-pyrimidin-1(2H)-yl)-4-fluoro-3-hydroxytetrahydrofuran-2-yl)-methoxy)(phenoxy)phosphoryl)-L-alaninate]
mutagenicity (mini Ames) [8]: negative for mutagenicity
EC90 [9]: 74 ± 2 nM
EC90 [10]: 83 ± 20 nM
MtDNA content % of control (range) ([1]; 12.5 μM): 86 (79–93) % of control
MtDNA content % of control (range) ([1]; 25 μM): 110 (110–110) % of control
MtDNA content % of control (range) ([1]; 50 μM): 150 (150–150) % of control
mitochondrial toxicity [1]: no mitochondrial toxicity
half-life [11]: > 145 min
IC50 at 3 days [2]: > 100000 nM
CC50 [7]: > 100000 nM
half-life [12]: 19.7 min
microsomal CLint [12]: 70.2 µL/min/mg
EC90 [13]: 130 ± 3 nM
EC90 [14]: 77 nM
IC50 [15]: > 100000 nM
simulated gastric fluid (24 h), loss [17]: ~2% loss
IC50 at 14 days [18]: > 100000 nM
remaining after 60 min ([19]; human liver microsomes): 3%
Clint(liver) [19]: 63.2 mL/min/kg
IC50 [20]: > 30000 nM
stability in simulated intestinal fluid (24 h) [21]: stable

CC(C)OC(=O)[C@H](C)N[P@](=O)(OC[C@H]1O[C@@H](n2ccc(=O)[nH]c2=O)[C@](C)(F)[C@@H]1O)Oc1ccccc1 [SOF, sofosbuvir, reference compound]
EC50 [9]: 34 nM
EC90 [9]: 150 ± 30 nM
MtDNA content % of control (range) ([1]; 12.5 μM): 96 (90–100) % of control
MtDNA content % of control (range) ([1]; 50 μM): 130 (120–150) % of control
mutagenicity [22]: negative for mutagenicity
hERG channel inhibition [23]: free from hERG channel inhibition
IC50 [15]: > 100000 nM
EC90 [16]: 370 ± 10 nM
IC50 at 3 days [24]: > 300000 nM

Nc1ccn([C@H]2CC[C@@H](CO)O2)c(=O)n1 [ddC, β-D-2′,3′-dideoxycytidine, reference compound]
MtDNA content % of control (range) ([1]; 10 μM): 7.3 % of control
mitochondrial toxicity [1]: highly toxic

Cc1cn([C@H]2CC[C@@H](COP(=O)(O)OP(=O)(O)OP(=O)(O)O)O2)c(=O)[nH]c1=O [ddTTP]
IC50 [25]: 100 ± 70 nM
IC50 [26]: 8400 ± 110 nM

O=C(O)Cc1ccccc1Nc1c(Cl)cccc1Cl [diclofenac, reference compound]
microsomal CLint [12]: 129 µL/min/mg
